Results: patent publication US20230392217A1 (priority 2020, published 2023)
Read-outs that look alike come from different tables or passages of the source.

Tests used:
[1] = system: SosA protein of Staphylococcus aureus; test: SosA expression of Staphylococcus aureus according to concentration of ciprofloxacin, detected using SosA antibodies; assay type: cell-based; conditions: detected using the SosA antibody, FIG. 10
Description: Pellets of microorganisms were suspended with 1 ml of DPBS containing sosA-specific antibodies that were diluted at 1:2,000 and cultured overnight at 37° C., 180 rpm. Thereafter, centrifugation was performed at 13,000 rpm for 1 minute, secondary antibodies (anti-mouse FITC, Abcam) diluted at 1:500 were treated, and culture was performed at 37° C., 180 rpm for 3 hours. 100 ul of a sample was transferred to a 12-well plate containing an 18 mm cover glass and centrifuged at 1,100 rpm for 1 minute, and the bacteria were attached to a cover glass. The plates were washed three times with DPBS, and centrifugation was performed at 1,100 rpm for 1 minute. The cover glass was attached to the slide, and then imaging was performed using the Zeiss LSM 5 live confocal microscope. Images were acquired using Plan-Apochromat 63×1.4 NA objectives, and analysis was performed to detect GFP fluorescence by setting to 488 nm for excitation wavelength and 513±12 nm for emission wavelength.
In addition, each sample was transferred to a 96-well plate, and absorbance measurement and fluorescence analysis were performed using Ensight (PerkinElmer). In the case of green fluorescence, the excitation wavelength was at 488 nm and the emission wavelength was at 528 nm, and in the case of red fluorescence, the excitation wavelength was at 558 nm and the emission wavelength was at 615 nm. […]

[2] = system: methicillin-sensitive S. aureus (MSSA); conditions: cited from earlier work
[3] = system: methicillin-resistant S. aureus (MRSA); conditions: cited from earlier work

O=C(O)c1cn(C2CC2)c2cc(N3CCNCC3)c(F)cc2c1=O [Ciprofloxacin, ciprofloxacin]
expression of SosA [1]: increases with the increase in the administration concentration
antibiotic susceptibility/resistance ([2]; strain MSSA #1): Susceptible
antibiotic susceptibility/resistance ([2]; strain MSSA #2): Susceptible
antibiotic susceptibility/resistance ([2]; strain MSSA #3): Susceptible
antibiotic susceptibility/resistance ([2]; strain MSSA #4): Susceptible
antibiotic susceptibility/resistance ([2]; strain MSSA #5): Susceptible
antibiotic susceptibility/resistance ([2]; strain MSSA #6): Susceptible
antibiotic susceptibility/resistance ([2]; strain MSSA #7): Resistant
antibiotic susceptibility/resistance ([2]; strain MSSA #8): Resistant
antibiotic susceptibility/resistance ([2]; strain MSSA #9): Susceptible
antibiotic susceptibility/resistance ([2]; strain MSSA #10): Susceptible
antibiotic susceptibility/resistance ([2]; strain MSSA #11): Susceptible
antibiotic susceptibility/resistance ([2]; strain MSSA #12): Susceptible
antibiotic susceptibility/resistance ([2]; strain MSSA #13): Susceptible
antibiotic susceptibility/resistance ([2]; strain MSSA #14): Susceptible
antibiotic susceptibility/resistance ([2]; strain MSSA #15): Susceptible
antibiotic susceptibility/resistance ([2]; strain MSSA #16): Susceptible
antibiotic susceptibility/resistance ([2]; strain MSSA #17): Susceptible
antibiotic susceptibility/resistance ([2]; strain MSSA #18): Susceptible
antibiotic susceptibility/resistance ([2]; strain MSSA #19): Susceptible
antibiotic susceptibility/resistance ([2]; strain MSSA #20): Resistant
antibiotic susceptibility/resistance ([3]; strain MRSA #1): Resistant
antibiotic susceptibility/resistance ([3]; strain MRSA #2): Resistant
antibiotic susceptibility/resistance ([3]; strain MRSA #3): Susceptible
antibiotic susceptibility/resistance ([3]; strain MRSA #4): Susceptible
antibiotic susceptibility/resistance ([3]; strain MRSA #5): Resistant
antibiotic susceptibility/resistance ([3]; strain MRSA #6): Resistant
antibiotic susceptibility/resistance ([3]; strain MRSA #7): Resistant
antibiotic susceptibility/resistance ([3]; strain MRSA #8): Resistant
antibiotic susceptibility/resistance ([3]; strain MRSA #9): Resistant
antibiotic susceptibility/resistance ([3]; strain MRSA #10): Resistant
antibiotic susceptibility/resistance ([3]; strain MRSA #11): Resistant
antibiotic susceptibility/resistance ([3]; strain MRSA #12): Resistant
antibiotic susceptibility/resistance ([3]; strain MRSA #13): Resistant
antibiotic susceptibility/resistance ([3]; strain MRSA #14): Resistant
antibiotic susceptibility/resistance ([3]; strain MRSA #15): Resistant
antibiotic susceptibility/resistance ([3]; strain MRSA #16): Resistant
antibiotic susceptibility/resistance ([3]; strain MRSA #17): Resistant
antibiotic susceptibility/resistance ([3]; strain MRSA #18): Susceptible
antibiotic susceptibility/resistance ([3]; strain MRSA #19): Resistant
antibiotic susceptibility/resistance ([3]; strain MRSA #20): Resistant
antibiotic susceptibility/resistance ([3]; strain MRSA #21): Resistant
antibiotic susceptibility/resistance ([3]; strain MRSA #22): Resistant
antibiotic susceptibility/resistance ([3]; strain MRSA #23): Resistant
antibiotic susceptibility/resistance ([3]; strain MRSA #24): Susceptible
antibiotic susceptibility/resistance ([3]; strain MRSA #25): Resistant
antibiotic susceptibility/resistance ([3]; strain MRSA #26): Susceptible
antibiotic susceptibility/resistance ([3]; strain MRSA #27): Susceptible
antibiotic susceptibility/resistance ([3]; strain MRSA #28): Resistant
antibiotic susceptibility/resistance ([3]; strain MRSA #29): Resistant
antibiotic susceptibility/resistance ([3]; strain MRSA #30): Resistant
